# From ChEMBL document CHEMBL1201862, “PubChem BioAssay data set” (2004)
#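 Dose response: 5 concentrations. Exposure: 48 h. Format: 96-well plates. Endpoint: linear interpolation; highest concentration if not reached. At the GI50, growth is halved.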 Active and inactive are the calls of the source. Rule as the data show it: active = GI50 up to about 1.1 µM and inactive = higher.
# Legend:
# Assay in all cases: NCI anticancer screen, dose series, 48 h
# KM12 = tested on: KM12
# HOP-62 = tested on: HOP-62
# OVCAR-8 = tested on: OVCAR-8
# TK-10 = tested on: TK-10
# UACC-257 = tested on: UACC-257
# RPMI-8226 = tested on: RPMI-8226
# SN12C = tested on: SN12C
# COLO 205 = tested on: COLO 205
# SF-268 = tested on: SF-268
# HCT-116 = tested on: HCT-116
# A549 = tested on: A549
# NCI-H460 = tested on: NCI-H460
# SNB-19 = tested on: SNB-19
# HCT-15 = tested on: HCT-15
# MOLT-4 = tested on: MOLT-4
# ACHN = tested on: ACHN
# NCI-H23 = tested on: NCI-H23
# SW-620 = tested on: SW-620
# SK-OV-3 = tested on: SK-OV-3
# U-251 = tested on: U-251
SMILES,GI50 (KM12),GI50 (HOP-62),GI50 (OVCAR-8),GI50 (TK-10),GI50 (UACC-257),GI50 (RPMI-8226),GI50 (SN12C),GI50 (COLO 205),GI50 (SF-268),GI50 (HCT-116),GI50 (A549),GI50 (NCI-H460),GI50 (SNB-19),GI50 (HCT-15) [µM],GI50 (MOLT-4),GI50 (ACHN),GI50 (NCI-H23),GI50 (SW-620),GI50 (SK-OV-3),GI50 (U-251)
CCOC(=O)c1c(N=C(S)Nc2ccccc2)sc2c1CCN(C)C2,> 100 µM (inactive),> 100 µM (inactive),> 100 µM (inactive),> 100 µM (inactive),> 100 µM (inactive),> 100 µM (inactive),> 100 µM (inactive),> 100 µM (inactive),> 100 µM (inactive),> 100 µM (inactive),> 100 µM (inactive),> 100 µM (inactive),> 100 µM (inactive),> 100,> 100 µM (inactive),> 100 µM (inactive),> 100 µM (inactive),,,
C[C@H](O)C(=O)SC[C@H](NC(=O)CC[C@@H](N)C(=O)O)C(=O)NCC(=O)O,> 100 µM (inactive),> 100 µM (inactive),> 100 µM (inactive),> 100 µM (inactive),> 100 µM (inactive),> 100 µM (inactive),> 100 µM (inactive),> 100 µM (inactive),> 100 µM (inactive),> 100 µM (inactive),,> 100 µM (inactive),,> 100,> 100 µM (inactive),> 100 µM (inactive),> 100 µM (inactive),> 100 µM (inactive),> 100 µM (inactive),> 100 µM (inactive)
CC1CC/C(=C\c2ccc(Cl)cc2)C(=O)/C1=C\c1ccc(Cl)cc1 (stereo not given),18.7 µM (inactive),25.6 µM (inactive),30.1 µM (inactive),29.1 µM (inactive),42.7 µM (inactive),,30.8 µM (inactive),32.1 µM (inactive),34.2 µM (inactive),32.6 µM (inactive),35.3 µM (inactive),,> 10 µM (inactive),22.4,,32.9 µM (inactive),,41.3 µM (inactive),> 100 µM (inactive),39.9 µM (inactive)
Cc1cccc(C(C)C)c1NC(=O)/C(Cc1c([N+](=O)[O-])cccc1[N+](=O)[O-])=N/NC(=O)CC#N,> 100 µM (inactive),,,80.9 µM (inactive),,,,> 100 µM (inactive),> 100 µM (inactive),> 100 µM (inactive),> 100 µM (inactive),> 100 µM (inactive),> 100 µM (inactive),> 100,> 100 µM (inactive),> 100 µM (inactive),,> 100 µM (inactive),> 100 µM (inactive),
c1ccc2c(c1)CCCC/C2=N/OCC1CO1 (stereo not given),35.9 µM (inactive),,45.7 µM (inactive),> 100 µM (inactive),46.5 µM (inactive),30.3 µM (inactive),51.5 µM (inactive),48.8 µM (inactive),58.3 µM (inactive),45 µM (inactive),56.4 µM (inactive),80.7 µM (inactive),,> 100,32.1 µM (inactive),99.1 µM (inactive),41.8 µM (inactive),63.4 µM (inactive),,72.3 µM (inactive)
O=C1c2ccccc2C(=O)N1/N=C1/SC(=N\c2ccccc2)/C(=N/c2ccccc2)N1c1ccccc1,> 38.8 µM (inactive),> 45.6 µM (inactive),40.1 µM (inactive),> 58.5 µM (inactive),> 100 µM (inactive),> 21.1 µM (inactive),> 39.3 µM (inactive),> 85.3 µM (inactive),> 100 µM (inactive),38.6 µM (inactive),> 21 µM (inactive),> 61.8 µM (inactive),> 90.4 µM (inactive),> 47.5,> 65.8 µM (inactive),> 66.4 µM (inactive),> 46.8 µM (inactive),> 61.7 µM (inactive),,24.9 µM (inactive)
